The subject of assay [1] is adjuvant-induced arthritis models. Put plainly: Adjuvant-induced arthritis models. The class given is in vivo, Lewis rat. The note with it: for clinical score: intraperitoneally, score 0 to 16; for arthritis symptoms improved by: 3, 10 and 30 mg/kg twice a day, versus vehicle group; for efficacy compared with the control compound Tofacitinib: clinical score. The procedure: Complete Freund's Adjuvant (Chondrex) containing 10 mg/mL Heat killed mycobacteria toxin was sufficiently mixed, and then 100 μL was taken and intradermally injected into the upper part of the tail of Lewis rat to induce arthritis. After 10 days, the length of the ankle circumference of rats was measured, and then the rats were grouped and used in the experiment. Each compound was intraperitoneally injected twice a day. The clinical score, the length of the ankle circumference, and the weight were measured twice a week after the administration of the compounds. The clinical scores were assigned from 0 to 4 based on the thesis of Woods, etc. (J. Immunology, 1214-1222, 2001), and the total clinical score was determined by evaluating the feet of each rat and summing up the scores (normal: 0, most severe edema: 16). The length of the ankle circumference was calculated based on the formula of 2×3.14(√(a^2+b^2/2)) after measuring top-bottom sides (a) of the foot and lateral sides (b) of the foot. The final value was determined by averaging the calculated values of each foot.

In assay [2] the test system is collagen-induced arthritis models. Put plainly: Collagen-induced arthritis models. The class given is in vivo, DBA/1J mice. The note with it: for arthritis symptoms improved by: versus vehicle group. Here is the method:
An emulsion was prepared by mixing bovine collagen type II (Chondrex) and complete Freund's adjuvant (Chondrex) at a ratio of 1:1 until the […] using a 1 ml pipette. Each 100 μL of emulsion was intradermally injected into the tail of DBA/1J mice for the first immunization. After 21 days, an emulsion was prepared by mixing bovine collagen type II and incomplete Freund's adjuvant (Chondrex) at a ratio of 1:1 by the same method as above. Each of 100 μL of emulsion was intradermally injected into the upper part of the tail of DBA/1J mice for the second boosting immunization. After the second boosting immunization, the mice were grouped according to body weight, the test drug was administered to each group, and the effects of the test drugs were measured by measuring the clinical score and the body weight. The clinical scores were assigned from 0 to 4, and the total clinical score was determined by evaluating the feet of each mouse and summing up the scores (normal: 0, most severe edema: 16). That is, the efficacy in the arthritis models was evaluated with the severity of edema of the joint, and a higher score was assigned to more severe edema.

Another assay concerns the target T1, HDAC 9 (Homo sapiens, UniProt Q9UKV0).
T1 construct: Reaction Biology Corp
Put plainly: HDAC panel by Reaction Biology Corp., HDAC 9. Format: biochemical. As to conditions: read-out: HDAC inhibitory activities, HDAC 9. An excerpt:
(§1) The inhibitory activities of Compounds 255 and 374 on all HDACs were confirmed (by Reaction Biology Corp.).

For the next assay, the target named is T2, HDAC 3 (Homo sapiens, UniProt O15379).
T2 construct: Reaction Biology Corp
Briefly: HDAC panel by Reaction Biology Corp., HDAC 3. As to conditions: read-out: HDAC inhibitory activities, HDAC 3. The class given is biochemical.
From the text: as §1

A further assay concerns the target T3, HDAC 11 (Homo sapiens, UniProt Q96DB2).
T3 construct: Reaction Biology Corp
T3 sequence (Q96DB2 1-347): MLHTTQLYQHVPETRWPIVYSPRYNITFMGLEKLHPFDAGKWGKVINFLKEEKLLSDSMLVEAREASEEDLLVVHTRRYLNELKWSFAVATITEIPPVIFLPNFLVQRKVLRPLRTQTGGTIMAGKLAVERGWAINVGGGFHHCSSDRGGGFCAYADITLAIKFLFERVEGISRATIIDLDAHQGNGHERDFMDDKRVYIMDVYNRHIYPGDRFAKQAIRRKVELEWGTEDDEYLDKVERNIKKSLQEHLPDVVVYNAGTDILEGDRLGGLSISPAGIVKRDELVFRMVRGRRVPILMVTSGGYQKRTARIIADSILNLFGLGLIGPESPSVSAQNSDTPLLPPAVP
Briefly: HDAC panel by Reaction Biology Corp., HDAC 11. Format: biochemical. The note with it: read-out: HDAC inhibitory activities, HDAC 11.
From the text: as §1

The subject of assay [3] is histone acetylation (HDAC1) in RPMI8226 cells. Briefly: Acetylation of Histone H3 and Histone H4 in cells by Western blot. The class given is cell-based. As to conditions: 24 hours. Here is the method:
(§2) To determine the selectivity for HDAC6 in cells, the acetylation levels of Tubulin, Histone H3 and Histone H4 depending on the concentration of compounds were measured by Western blot.
RPMI8226 (1.0×10^6 cells/well) cells were seeded on six-well plates and treated with drugs (Compounds 255 and 374) at each concentration. After 24 hours, the proteins were extracted with RIPA buffer and quantified by the Bradford method. 25 μg of protein was lysed in sample buffer, electrophoresed on a 4-12% gradient gel, and then transferred to nitrocellulose membranes for 50 minutes. Then transferred protein was blocked with 5% skim milk for 1 hour. Anti-acetyl H3 (1:2,000), anti-acetyl H4 (1:5,000), anti-acetyl tubulin (1:5,000), and anti-β-actin antibody (1:10,000) were added into 5% skim milk, and the membranes were immersed in the skim milk, reacted at 4° C. for 16 hours, and then washed three times for 10 minutes each with 1×TBS-T. Then, IgG-HRP antibody (1:5,000) was added into 5% skim milk, and then the membranes were immersed in the skim milk, reacted at room temperature for 40 minutes, and then washed three times for […] each with 1×TBS-T. Then, the acetylation levels were determined with a LAS 3000 using ECL solution. […]

For assay [4], the system named is tubulin acetylation (HDAC6) in RPMI8226 cells. Briefly: Acetylation of Tubulin in cells by Western blot. The class given is cell-based. The note with it: for concentration at which tubulin acetylation (HDAC6) was expressed: 24 hours. Here is the method:
as §2
RPMI8226 (1.0×10^6 cells/well) cells were seeded on six-well plates and treated with drugs (Compounds 255 and 374) at each concentration. After 24 hours, the proteins were extracted with RIPA buffer and quantified by the Bradford method. 25 μg of protein was lysed in sample buffer, electrophoresed on a 4-12% gradient gel, and then transferred to nitrocellulose membranes for 50 minutes. Then transferred protein was blocked with 5% skim milk for 1 hour. Anti-acetyl H3 (1:2,000), anti-acetyl H4 (1:5,000), anti-acetyl tubulin (1:5,000), and anti-β-actin antibody (1:10,000) were added into 5% skim milk, and the membranes were immersed in the skim milk, reacted at 4° C. for 16 hours, and then washed three times for 10 minutes each with 1×TBS-T. Then, IgG-HRP antibody (1:5,000) was added into 5% skim milk, and then the membranes were immersed in the skim milk, reacted at room temperature for 40 minutes, and then washed three times for […] each with 1×TBS-T. Then, the acetylation levels were determined with a LAS 3000 using ECL solution.
The acetylation of tubulin, histone H3 and Histone H4 on RPMI8226 cells (1.0×10^6 cells/well) derived from myeloma was determined in the same manner as the cell determination in Example 1.

The next assay has as its target HDAC1 (Homo sapiens, UniProt Q13547). Put plainly: HDAC panel by Reaction Biology Corp., HDAC 1. The class given is biochemical. Also on record: Reaction Biology Corp. The note with it: Table 15, Reaction Biology Corp.; read-out: HDAC1 inhibitory activity.
From the text: as §1

HDAC1, sequence (Q13547 whole entry): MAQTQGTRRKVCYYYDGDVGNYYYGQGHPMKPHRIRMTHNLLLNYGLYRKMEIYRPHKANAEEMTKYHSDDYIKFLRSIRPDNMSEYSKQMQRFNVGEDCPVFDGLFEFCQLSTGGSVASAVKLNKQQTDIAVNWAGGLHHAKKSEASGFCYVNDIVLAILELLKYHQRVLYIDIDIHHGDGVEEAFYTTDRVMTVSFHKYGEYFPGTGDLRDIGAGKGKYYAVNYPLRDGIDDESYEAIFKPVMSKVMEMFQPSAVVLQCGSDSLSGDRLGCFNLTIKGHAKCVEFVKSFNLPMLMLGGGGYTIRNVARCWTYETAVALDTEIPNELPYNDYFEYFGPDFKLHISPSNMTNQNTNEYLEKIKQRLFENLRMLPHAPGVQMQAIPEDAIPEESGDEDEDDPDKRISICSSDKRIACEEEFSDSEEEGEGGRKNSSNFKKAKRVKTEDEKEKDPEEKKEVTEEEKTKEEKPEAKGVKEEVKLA
T2 sequence (O15379 whole entry): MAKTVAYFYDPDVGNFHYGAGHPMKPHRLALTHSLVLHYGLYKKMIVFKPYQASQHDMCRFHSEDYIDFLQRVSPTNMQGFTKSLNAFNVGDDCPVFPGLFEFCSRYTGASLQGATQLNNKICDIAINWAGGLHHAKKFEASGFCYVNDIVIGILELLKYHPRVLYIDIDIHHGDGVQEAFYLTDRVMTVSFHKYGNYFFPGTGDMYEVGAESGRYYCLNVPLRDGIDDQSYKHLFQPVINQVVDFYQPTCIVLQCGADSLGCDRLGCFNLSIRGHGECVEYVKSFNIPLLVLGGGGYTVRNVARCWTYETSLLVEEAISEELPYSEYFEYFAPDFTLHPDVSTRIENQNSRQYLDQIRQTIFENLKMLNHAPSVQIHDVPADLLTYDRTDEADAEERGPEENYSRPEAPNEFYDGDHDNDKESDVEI
T2 sequence (Q9Y618 395-489 partner limits assumed): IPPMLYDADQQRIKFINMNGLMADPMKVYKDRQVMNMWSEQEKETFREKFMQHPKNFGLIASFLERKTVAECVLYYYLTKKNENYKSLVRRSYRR
T1 sequence (Q9UKV0 whole entry): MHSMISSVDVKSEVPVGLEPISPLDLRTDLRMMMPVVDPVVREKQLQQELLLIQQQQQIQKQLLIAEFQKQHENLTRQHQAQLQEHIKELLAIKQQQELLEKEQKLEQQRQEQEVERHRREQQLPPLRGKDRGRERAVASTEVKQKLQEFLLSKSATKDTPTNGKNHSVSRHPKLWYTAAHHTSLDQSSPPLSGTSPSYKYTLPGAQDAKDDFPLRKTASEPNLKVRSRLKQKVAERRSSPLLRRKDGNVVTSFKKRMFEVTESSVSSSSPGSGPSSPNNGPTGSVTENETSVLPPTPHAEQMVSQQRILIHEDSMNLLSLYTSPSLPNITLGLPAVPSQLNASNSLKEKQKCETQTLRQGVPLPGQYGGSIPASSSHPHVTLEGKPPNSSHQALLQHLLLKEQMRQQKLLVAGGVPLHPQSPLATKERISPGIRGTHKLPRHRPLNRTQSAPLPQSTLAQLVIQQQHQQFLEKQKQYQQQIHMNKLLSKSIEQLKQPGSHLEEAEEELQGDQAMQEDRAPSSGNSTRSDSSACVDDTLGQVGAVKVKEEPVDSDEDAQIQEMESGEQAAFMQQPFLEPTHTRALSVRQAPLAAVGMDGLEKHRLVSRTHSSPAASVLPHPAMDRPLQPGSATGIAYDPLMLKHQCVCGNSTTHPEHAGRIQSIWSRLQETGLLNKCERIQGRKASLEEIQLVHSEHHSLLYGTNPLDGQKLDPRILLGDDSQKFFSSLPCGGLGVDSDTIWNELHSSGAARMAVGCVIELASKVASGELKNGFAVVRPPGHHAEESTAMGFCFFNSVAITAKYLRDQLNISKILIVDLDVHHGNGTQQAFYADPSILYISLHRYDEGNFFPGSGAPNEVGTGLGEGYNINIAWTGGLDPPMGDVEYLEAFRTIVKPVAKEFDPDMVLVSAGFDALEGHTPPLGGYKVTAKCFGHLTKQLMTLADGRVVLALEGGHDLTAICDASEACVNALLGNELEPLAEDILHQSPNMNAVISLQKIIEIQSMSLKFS

With `O=C(NO)c1ccc(CN(C(=O)N2CCOCC2)c2cccc(Br)c2)cc1` [Compound 255, N-(3-bromophenyl)-N-(4-(hydroxycarbamoyl)benzyl)morpholine-4-carboxamide], the clinical score in assay [1] (3 mg/kg twice a day) was found to be 3.0; in assay [1] (10 mg/kg twice a day) it was 2.6; in assay [1] (30 mg/kg twice a day), 0.7; in assay [2] (10 mg/kg twice a day, score 0 to 16, vehicle group 11.6), 5.2; in assay [2] (30 mg/kg twice a day, score 0 to 16, vehicle group 11.6) it was 6.5. The “arthritis symptoms improved by” value in assay [1] was 40 to 90%; in assay [2] (10 and 30 mg/kg twice a day), “more than 50%”. Moreover, the “efficacy compared with the control compound Tofacitinib” value in assay [1] was “equivalent efficacy”. For the same compound, the IC50 on HDAC 9 was 3.52 µM; at HDAC 3, 1.63 µM; on HDAC 11 it was 0.78 µM; on HDAC1, 0.16 µM. Also, the “concentration at which histone acetylation (HDAC1) was expressed” value in assay [3] was determined as 1 µM. Further, the “cell selectivity (tubulin versus histone acetylation)” value in assay [4] is listed as “excellent cell selectivity”. In addition, in assay [4], the “concentration at which tubulin acetylation (HDAC6) was expressed” value is listed as “about 10 nM”.

For `O=C(NO)c1ccc(CN(C(=O)N2CCOCC2)c2cccc(C(F)(F)F)c2)cc1` [Compound 374, N-(4-(hydroxycarbamoyl)benzyl)-N-(3-(trifluoromethyl)phenyl)morpholine-4-carboxamide], the clinical score is on record as 2.5 in assay [1] (3 mg/kg twice a day); 0.8 in assay [1] (10 mg/kg twice a day); 1.3 in assay [1] (30 mg/kg twice a day); 2.8 in assay [2] (different concentrations, first value listed (dose not given), vehicle group 6.7); 2.5 in assay [2] (different concentrations, second value listed (dose not given), vehicle group 6.7). In addition, the “arthritis symptoms improved by” value in assay [1] is listed as 70 to 90%; in assay [2] (different concentrations (doses not given)), “more than 60%”. Also, the “efficacy compared with the control compound Tofacitinib” value in assay [1] is “equivalent efficacy”. The IC50 stood at 10.3 µM at HDAC 9, 10.3 µM on HDAC 3, 8.42 µM at HDAC 11 and 2.12 µM at HDAC1. The “concentration at which histone acetylation (HDAC1) was expressed” value in assay [3] is 10 µM. For the same compound, in assay [4], the “cell selectivity (tubulin versus histone acetylation)” value is given as “excellent cell selectivity”. Also, the “concentration at which tubulin acetylation (HDAC6) was expressed” value in assay [4] is “about 10 nM”.

These data come from US9878986B2, “Compounds for selective histone deacetylase inhibitors, and pharmaceutical composition comprising the same” (CHONG KUN DANG PHARMACEUTICAL CORP., priority 2013, dated 2018).
